Assay [1] relates to AXIN2 gene expression. In words: Expression level of Wnt/β-catenin target gene AXIN2 by real-time PCR in HCT116 cells. In kind it is cell-based, human. The note with it: 10 and 3 μM, 24 hours. How it is done: Effects of the compound of the present invention on Wnt/β-catenin signaling activity were studied using the real-time PCR method as well as using as an indicator changes in expression levels of target genes of the Wnt/β-catenin signaling pathway. To a RPMI 1640 medium (NACALAI TESQUE, INC.), 10% FBS (AusGeneX PTY LTD.) and 1% Penicillin/Streptomycin (NACALAI TESQUE, INC.) were added to prepare a cell culture medium (hereinafter referred to as medium 1). In a T75 flask, HCT116 cells (ATCC No. CCL-247) were added to the medium 1. The cells in the flask were cultured in the 5% CO2 incubator. The cultured HCT116 cells were diluted with the medium 1 so as to have a cell concentration of 1.1×10^5 cells/mL. Into the T75 flask, 13.5 mL of the diluted cells was seeded, followed by culturing overnight in the 5% CO2 incubator. […] Total RNA concentration was measured by a microspectrophotometer (Thermo Fisher Scientific Inc., Nano Drop ND-1000). […] The results were calculated as the expression ratio of the target gene to the endogenous control gene (β-Actin) by the comparative Ct method using a DMSO group as a reference.

Assay [2] relates to c-MYC protein expression. In words: Expression level of Wnt/β-catenin target protein c-MYC by western blotting in HCT116 cells. Format: cell-based. The note with it: Homo sapiens, 24 hours, read-out: Inhibition rate (%) c-MYC protein. How it is done: Expression levels of target proteins of the Wnt/β-catenin signaling pathway was analyzed by western blotting method, and effects of the compound of the present invention on Wnt/β-catenin signaling activity were studied by using a change of these levels as an indicator. HCT116 cells cultured in the same manner as in Test Example 2 were diluted with the medium 1 so as to have a cell concentration of 5×10^5 cells/mL, and 5 mL of the diluted cells were seeded into T25 flasks, followed by culturing overnight in the 5% CO2 incubator. Next day, solutions of the compound to be tested obtained by diluting 10 and 3 mM DMSO stock solutions of the compound to be tested 100-fold with the medium 1 were added to each flask so that the amount of the solution in the flask was one tenth of the amount of the final solution (final concentrations of the compound to be tested: 10 and 3 μM). […] Supernatant was recovered by centrifugal operation (15,000 rpm, 10 min.) and amounts of proteins were determined. […] Thereafter, using a CCD camera (GE Healthcare Co., ImageQuant LAS 500), the respective bands were detected by chemiluminescence. The detected bands were quantified by densitometry (GE Healthcare Co., ImageQuant TL v8.1.0.0). Inhibition rates were calculated from the intensities of the bands in the respective groups, with the luminescence of the band of the DMSO added group being 100%. […]

As a reminder, the inhibition is the change of the read-out against control, counted positive when it falls. `O[C@H]1CC[C@@H](Oc2cccc3cnc(Nc4ccc5nc[nH]c5c4)nc23)CC1` [Example 1, cis-4-({2-[(1H-benzo[d]imidazol-6-yl)amino]quinazolyn-8-yl}oxy)cyclohexanol]: the AXIN2 gene expression entry in assay [1] is “inhibited the expression of AXIN2 and c-MYC”. Further, the inhibition at 3 µM in assay [2] (HCT-116, 3 μM) came out at 63.9%. Further, the inhibition at 10 µM in assay [2] (HCT-116, 10 μM) is 90.2%.

The record behind these values is patent US9682961B2, “Quinazoline derivative” (CARNA BIOSCIENCES, INC., priority 2013, dated 2017).
